# In ChEMBL document CHEMBL5649169 (ChemMedChem, 2018):
# Columns and labels:
# [1] = target: Large ribosomal subunit protein uL11 (Homo sapiens) (UniProt P30050)
# Ataxin-10 (Homo sapiens) = Ataxin-10 (Homo sapiens) (UniProt Q9UBB4)
# [2] = target: Bifunctional purine biosynthesis protein ATIC (Homo sapiens) (UniProt P31939)
# [3] = target: Activin receptor type-1 (Homo sapiens) (UniProt Q04771)
# [4] = target: Focal adhesion kinase 1 (Homo sapiens) (UniProt Q05397)
# [5] = target: Malate dehydrogenase, mitochondrial (Homo sapiens) (UniProt P40926)
# [6] = target: Dynein light chain 1, cytoplasmic (Homo sapiens) (UniProt P63167)
# Chain of Dynein light chain 1, cytoplasmic (Homo sapiens) (P63167 whole entry): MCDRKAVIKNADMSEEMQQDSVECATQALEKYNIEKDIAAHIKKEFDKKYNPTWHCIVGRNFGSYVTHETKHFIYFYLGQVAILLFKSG
# [7] = target: Cytochrome b-c1 complex subunit 1, mitochondrial (Homo sapiens) (UniProt P31930)
# Chain of Cytochrome b-c1 complex subunit 1, mitochondrial (Homo sapiens) (P31930 whole entry, one chain of several): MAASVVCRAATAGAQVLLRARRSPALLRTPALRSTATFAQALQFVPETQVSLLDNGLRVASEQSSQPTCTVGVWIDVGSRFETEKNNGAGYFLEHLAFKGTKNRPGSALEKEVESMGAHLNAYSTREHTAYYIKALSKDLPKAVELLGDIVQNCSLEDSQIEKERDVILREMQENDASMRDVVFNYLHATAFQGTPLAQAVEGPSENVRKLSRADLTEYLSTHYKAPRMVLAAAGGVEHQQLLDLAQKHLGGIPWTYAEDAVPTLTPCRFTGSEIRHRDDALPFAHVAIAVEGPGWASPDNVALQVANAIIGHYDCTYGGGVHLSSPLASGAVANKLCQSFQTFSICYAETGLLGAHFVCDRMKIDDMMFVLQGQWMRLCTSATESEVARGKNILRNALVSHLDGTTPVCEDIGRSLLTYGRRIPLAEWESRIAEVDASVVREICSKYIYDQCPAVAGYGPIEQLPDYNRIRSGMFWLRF
# [8] = target: Dual specificity protein kinase CLK2 (Homo sapiens) (UniProt P49760)
# Chain of Dual specificity protein kinase CLK2 (Homo sapiens) (P49760 whole entry, looked up): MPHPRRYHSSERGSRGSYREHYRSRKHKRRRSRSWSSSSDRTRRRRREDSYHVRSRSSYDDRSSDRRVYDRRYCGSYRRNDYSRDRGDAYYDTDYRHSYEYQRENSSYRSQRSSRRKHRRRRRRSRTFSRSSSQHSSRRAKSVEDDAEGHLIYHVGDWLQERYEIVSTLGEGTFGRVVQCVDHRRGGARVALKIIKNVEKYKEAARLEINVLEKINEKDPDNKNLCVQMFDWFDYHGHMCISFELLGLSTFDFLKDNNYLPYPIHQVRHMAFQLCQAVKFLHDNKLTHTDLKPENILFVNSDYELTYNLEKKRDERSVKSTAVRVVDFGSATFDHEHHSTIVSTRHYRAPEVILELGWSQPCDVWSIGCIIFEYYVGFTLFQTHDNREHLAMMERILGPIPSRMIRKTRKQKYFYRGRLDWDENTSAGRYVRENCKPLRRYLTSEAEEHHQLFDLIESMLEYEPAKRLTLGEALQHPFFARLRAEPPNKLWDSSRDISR
# [9] = target: Aspartate aminotransferase, cytoplasmic (Homo sapiens) (UniProt P17174)
# [10] = target: Delta(14)-sterol reductase LBR (Homo sapiens) (UniProt Q14739)
# Cyclin-A2 (Homo sapiens) = Cyclin-A2 (Homo sapiens) (UniProt P20248)
# [11] = target: Signal peptidase complex catalytic subunit SEC11A (Homo sapiens) (UniProt P67812)
# Chain of Signal peptidase complex catalytic subunit SEC11A (Homo sapiens) (P67812 whole entry, one chain of several): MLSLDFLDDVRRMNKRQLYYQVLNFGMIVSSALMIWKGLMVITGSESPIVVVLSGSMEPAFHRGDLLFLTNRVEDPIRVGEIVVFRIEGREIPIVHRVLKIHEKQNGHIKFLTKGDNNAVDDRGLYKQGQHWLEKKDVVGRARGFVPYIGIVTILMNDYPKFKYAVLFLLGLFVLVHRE
# [12] = target: Dynein light chain 2, cytoplasmic (Homo sapiens) (UniProt Q96FJ2)
# [13] = target: Non-selective voltage-gated ion channel VDAC3 (Homo sapiens) (UniProt Q9Y277)
# [14] = target: Dihydropyrimidinase-related protein 3 (Homo sapiens) (UniProt Q14195)
# [15] = target: CDK5 and ABL1 enzyme substrate 1 (Homo sapiens) (UniProt Q8TDN4)
# Chain of CDK5 and ABL1 enzyme substrate 1 (Homo sapiens) (Q8TDN4 whole entry): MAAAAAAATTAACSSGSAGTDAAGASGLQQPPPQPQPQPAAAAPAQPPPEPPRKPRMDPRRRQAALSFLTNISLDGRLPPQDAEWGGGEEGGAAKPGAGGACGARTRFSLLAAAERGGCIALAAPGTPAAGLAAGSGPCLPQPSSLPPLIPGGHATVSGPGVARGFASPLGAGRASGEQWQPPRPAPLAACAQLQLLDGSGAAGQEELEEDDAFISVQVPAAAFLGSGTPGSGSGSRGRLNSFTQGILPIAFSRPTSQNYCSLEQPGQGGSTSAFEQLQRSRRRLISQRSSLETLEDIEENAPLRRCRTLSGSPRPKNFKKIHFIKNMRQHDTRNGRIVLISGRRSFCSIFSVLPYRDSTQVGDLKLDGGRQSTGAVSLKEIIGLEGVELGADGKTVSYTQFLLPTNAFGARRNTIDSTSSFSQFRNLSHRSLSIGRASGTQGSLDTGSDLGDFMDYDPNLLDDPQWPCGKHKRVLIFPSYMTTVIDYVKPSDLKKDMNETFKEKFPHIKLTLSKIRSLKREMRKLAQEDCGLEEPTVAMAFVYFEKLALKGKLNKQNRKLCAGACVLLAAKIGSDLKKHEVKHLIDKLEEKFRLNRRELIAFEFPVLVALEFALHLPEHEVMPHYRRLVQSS
# Ezrin (Homo sapiens) = Ezrin (Homo sapiens) (UniProt P15311)
# [16] = target: 14-3-3 protein gamma (Homo sapiens) (UniProt P61981)
# [17] = target: Rho guanine nucleotide exchange factor 2 (Homo sapiens) (UniProt Q92974)
# [18] = target: Conserved oligomeric Golgi complex subunit 8 (Homo sapiens) (UniProt Q96MW5)
# [19] = target: Mitogen-activated protein kinase kinase kinase 5 (Homo sapiens) (UniProt Q99683)
# [20] = target: CDK-activating kinase assembly factor MAT1 (Homo sapiens) (UniProt P51948)
# Chain of CDK-activating kinase assembly factor MAT1 (Homo sapiens) (P51948 whole entry): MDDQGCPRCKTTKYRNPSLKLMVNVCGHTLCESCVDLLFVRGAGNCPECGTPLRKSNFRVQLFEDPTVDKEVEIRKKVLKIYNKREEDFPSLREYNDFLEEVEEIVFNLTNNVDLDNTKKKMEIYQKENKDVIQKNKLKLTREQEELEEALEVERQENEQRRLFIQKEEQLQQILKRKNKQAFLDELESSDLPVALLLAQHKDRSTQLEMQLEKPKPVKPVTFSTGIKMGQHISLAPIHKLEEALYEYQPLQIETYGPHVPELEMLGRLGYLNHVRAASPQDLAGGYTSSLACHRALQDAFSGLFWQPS
# [21] = target: Propionyl-CoA carboxylase alpha chain, mitochondrial (Homo sapiens) (UniProt P05165)
# Chain of Propionyl-CoA carboxylase alpha chain, mitochondrial (Homo sapiens) (P05165 whole entry): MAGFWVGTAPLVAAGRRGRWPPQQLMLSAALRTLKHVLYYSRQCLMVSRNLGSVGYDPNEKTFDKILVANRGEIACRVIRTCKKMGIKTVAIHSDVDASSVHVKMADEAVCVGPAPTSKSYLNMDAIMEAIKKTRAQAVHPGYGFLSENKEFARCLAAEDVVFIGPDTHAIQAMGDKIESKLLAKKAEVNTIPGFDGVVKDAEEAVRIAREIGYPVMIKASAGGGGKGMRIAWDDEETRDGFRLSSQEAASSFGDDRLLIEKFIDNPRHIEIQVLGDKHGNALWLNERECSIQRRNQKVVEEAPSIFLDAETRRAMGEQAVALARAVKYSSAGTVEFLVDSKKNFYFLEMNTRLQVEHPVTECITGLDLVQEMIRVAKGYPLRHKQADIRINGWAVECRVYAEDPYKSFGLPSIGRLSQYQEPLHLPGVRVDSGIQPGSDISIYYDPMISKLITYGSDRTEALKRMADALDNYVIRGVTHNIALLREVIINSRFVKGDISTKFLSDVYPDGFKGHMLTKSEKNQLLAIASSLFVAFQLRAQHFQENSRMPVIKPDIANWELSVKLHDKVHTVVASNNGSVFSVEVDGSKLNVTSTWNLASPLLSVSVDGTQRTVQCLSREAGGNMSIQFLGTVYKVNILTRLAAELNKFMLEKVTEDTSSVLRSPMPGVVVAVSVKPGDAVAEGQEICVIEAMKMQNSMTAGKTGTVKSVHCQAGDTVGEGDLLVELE
# [22] = target: Dual specificity mitogen-activated protein kinase kinase 2 (Homo sapiens) (UniProt P36507)
# [23] = target: Tyrosine-protein kinase Fyn (Homo sapiens) (UniProt P06241)
# Chain of Tyrosine-protein kinase Fyn (Homo sapiens) (P06241 2-537 limits assumed): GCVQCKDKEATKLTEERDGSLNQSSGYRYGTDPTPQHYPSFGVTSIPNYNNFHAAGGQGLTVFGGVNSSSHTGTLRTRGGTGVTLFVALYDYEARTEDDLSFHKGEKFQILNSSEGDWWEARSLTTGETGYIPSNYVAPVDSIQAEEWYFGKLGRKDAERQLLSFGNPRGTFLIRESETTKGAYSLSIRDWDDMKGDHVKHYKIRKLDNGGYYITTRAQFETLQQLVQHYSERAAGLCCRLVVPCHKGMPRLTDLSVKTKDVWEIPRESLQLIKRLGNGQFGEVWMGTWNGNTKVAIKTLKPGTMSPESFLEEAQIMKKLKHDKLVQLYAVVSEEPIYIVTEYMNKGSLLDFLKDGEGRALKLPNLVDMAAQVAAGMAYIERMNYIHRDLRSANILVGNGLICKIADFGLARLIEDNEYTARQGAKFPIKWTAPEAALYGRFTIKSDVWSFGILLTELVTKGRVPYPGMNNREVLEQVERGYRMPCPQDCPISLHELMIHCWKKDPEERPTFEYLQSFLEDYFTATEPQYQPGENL
# [24] = target: Ataxin-2-like protein (Homo sapiens) (UniProt Q8WWM7)
# [25] = target: Monocarboxylate transporter 4 (Homo sapiens) (UniProt O15427)
# [26] = target: Catechol O-methyltransferase (Homo sapiens) (UniProt P21964)
# Chain of Catechol O-methyltransferase (Homo sapiens) (P21964 whole entry): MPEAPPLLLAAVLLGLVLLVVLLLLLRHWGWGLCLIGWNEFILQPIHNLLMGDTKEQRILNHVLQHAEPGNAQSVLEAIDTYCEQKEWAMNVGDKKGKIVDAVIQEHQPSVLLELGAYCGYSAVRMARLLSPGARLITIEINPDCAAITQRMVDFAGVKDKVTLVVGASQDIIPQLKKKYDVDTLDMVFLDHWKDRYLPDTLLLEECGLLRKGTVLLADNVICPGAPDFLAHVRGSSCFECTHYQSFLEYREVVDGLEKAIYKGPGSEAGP
# [27] = target: Prolyl 4-hydroxylase subunit alpha-1 (Homo sapiens) (UniProt P13674)
# Chain of Prolyl 4-hydroxylase subunit alpha-1 (Homo sapiens) (P13674 whole entry): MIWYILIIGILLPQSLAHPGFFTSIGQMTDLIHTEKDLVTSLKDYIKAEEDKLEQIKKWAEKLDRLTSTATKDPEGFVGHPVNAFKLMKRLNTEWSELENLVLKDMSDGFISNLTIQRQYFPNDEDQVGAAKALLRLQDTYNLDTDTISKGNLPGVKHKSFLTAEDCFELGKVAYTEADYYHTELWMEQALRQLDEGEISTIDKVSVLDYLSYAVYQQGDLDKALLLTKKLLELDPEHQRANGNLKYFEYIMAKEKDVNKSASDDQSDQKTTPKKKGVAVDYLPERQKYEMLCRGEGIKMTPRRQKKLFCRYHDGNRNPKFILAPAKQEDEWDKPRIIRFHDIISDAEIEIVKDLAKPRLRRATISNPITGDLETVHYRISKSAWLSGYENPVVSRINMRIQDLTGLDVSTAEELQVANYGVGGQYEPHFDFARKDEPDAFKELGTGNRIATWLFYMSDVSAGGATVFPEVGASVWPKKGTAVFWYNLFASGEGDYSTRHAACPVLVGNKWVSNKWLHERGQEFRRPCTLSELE
# [28] = target: Actin-related protein 2 (Homo sapiens) (UniProt P61160)
# [29] = target: Thioredoxin-dependent peroxide reductase, mitochondrial (Homo sapiens) (UniProt P30048)
# [30] = target: 5'-3' exoribonuclease 2 (Homo sapiens) (UniProt Q9H0D6)
# [31] = target: Deoxynucleoside triphosphate triphosphohydrolase SAMHD1 (Homo sapiens) (UniProt Q9Y3Z3)
# [32] = target: Serine/threonine-protein kinase TAO3 (Homo sapiens) (UniProt Q9H2K8)
# [33] = target: Minor histocompatibility antigen H13 (Homo sapiens) (UniProt Q8TCT9)
# [34] = target: DNA topoisomerase 1 (Homo sapiens) (UniProt P11387)
# [35] = target: Mitotic checkpoint protein BUB3 (Homo sapiens) (UniProt O43684)
# [36] = target: Dihydrolipoyl dehydrogenase, mitochondrial (Homo sapiens) (UniProt P09622)
# Chain of Dihydrolipoyl dehydrogenase, mitochondrial (Homo sapiens) (P09622 whole entry): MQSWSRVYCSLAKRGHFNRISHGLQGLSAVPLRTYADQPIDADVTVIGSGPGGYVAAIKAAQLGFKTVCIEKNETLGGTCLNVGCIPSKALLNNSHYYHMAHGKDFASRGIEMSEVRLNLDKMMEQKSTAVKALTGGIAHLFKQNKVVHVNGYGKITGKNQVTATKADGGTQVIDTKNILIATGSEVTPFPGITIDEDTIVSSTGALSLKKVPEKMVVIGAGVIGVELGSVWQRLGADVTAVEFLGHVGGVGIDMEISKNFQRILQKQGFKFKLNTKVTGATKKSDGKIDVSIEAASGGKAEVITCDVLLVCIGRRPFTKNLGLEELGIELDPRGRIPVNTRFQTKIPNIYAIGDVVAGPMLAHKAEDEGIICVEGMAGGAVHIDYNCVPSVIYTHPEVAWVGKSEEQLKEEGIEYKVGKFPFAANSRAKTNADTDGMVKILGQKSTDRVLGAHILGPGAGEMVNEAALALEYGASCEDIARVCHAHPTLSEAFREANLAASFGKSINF
# [37] = target: 28S rRNA (cytosine(4447)-C(5))-methyltransferase (Homo sapiens) (UniProt P46087)
# [38] = target: Small ribosomal subunit protein mS27 (Homo sapiens) (UniProt Q92552)
# [39] = target: ATP synthase F(1) complex subunit delta, mitochondrial (Homo sapiens) (UniProt P30049)
# Chain of ATP synthase F(1) complex subunit delta, mitochondrial (Homo sapiens) (P30049 whole entry, one chain of several): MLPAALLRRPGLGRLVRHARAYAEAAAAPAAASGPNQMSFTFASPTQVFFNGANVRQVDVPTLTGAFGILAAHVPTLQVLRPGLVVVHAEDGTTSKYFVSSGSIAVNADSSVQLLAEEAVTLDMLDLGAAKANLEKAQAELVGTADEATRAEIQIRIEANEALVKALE
# [40] = target: Large ribosomal subunit protein eL8 (Homo sapiens) (UniProt P62424)
# [41] = target: Histone deacetylase 2 (Homo sapiens) (UniProt Q92769)
# [42] = target: Mitogen-activated protein kinase kinase kinase kinase 1 (Homo sapiens) (UniProt Q92918)
# [43] = target: ADP/ATP translocase 1 (Homo sapiens) (UniProt P12235)
# Further: assay method not described here.
smiles,measurement,setting,value
Cc1ccc(C(=O)Nc2cccc(C(F)(F)F)c2)cc1Nc1nc(-c2cccnc2)nc2c1cnn2C,ED50,[1],3.63 µM
same,ED50,Ataxin-10 (Homo sapiens),0.103 µM
same,ED50,[2],3.39 µM
same,ED50,[3],0.00315 µM
same,ED50,[4],10.4 µM
same,ED50,[5],0.0198 µM
same,ED50,[6],0.0155 µM
same,ED50,[7],65.5 µM
same,ED50,[8],117 µM
same,ED50,[9],6.82 µM
same,ED50,[10],5.78 µM
same,ED50,Cyclin-A2 (Homo sapiens),4.89 µM
same,ED50,[11],430 µM
same,ED50,[12],0.148 µM
same,ED50,[13],0.745 µM
same,ED50,[14],0.379 µM
same,ED50,[15],0.993 µM
same,ED50,Ezrin (Homo sapiens),7.29 µM
same,ED50,[16],0.00449 µM
same,ED50,[17],9.51 µM
same,ED50,[18],0.00417 µM
same,ED50,[19],0.121 µM
same,ED50,[20],0.00972 µM
same,ED50,[21],0.596 µM
same,ED50,[22],0.0127 µM
same,ED50,[23],4.1 µM
same,ED50,[24],3.43 µM
same,ED50,[25],4.22 µM
same,ED50,[26],21.6 µM
same,ED50,[27],0.511 µM
same,ED50,[28],0.174 µM
same,ED50,[29],0.164 µM
same,ED50,[30],0.547 µM
same,ED50,[31],0.00363 µM
same,ED50,[32],5.85 µM
same,ED50,[33],9.93 µM
same,ED50,[34],0.0425 µM
same,ED50,[35],0.00528 µM
same,ED50,[36],11.1 µM
same,ED50,[37],0.000204 µM
same,ED50,[38],0.099 µM
same,ED50,[39],146 µM
same,ED50,[40],2.57 µM
same,ED50,[41],18.9 µM
same,ED50,[42],5.28 µM
same,ED50,[43],1.74 µM
Cc1ccc(C(=O)Nc2cccc(C(F)(F)F)c2)cc1Nc1nc(-c2cccnc2)nc2nn(C)cc12,ED50,[1],0.0513 µM
same,ED50,Ataxin-10 (Homo sapiens),1470 µM
same,ED50,[2],0.073 µM
same,ED50,[3],34000 µM
same,ED50,[4],0.0476 µM
same,ED50,[5],0.0533 µM
same,ED50,[6],5.16 µM
same,ED50,[7],0.00513 µM
same,ED50,[8],6.69 µM
same,ED50,[9],0.842 µM
same,ED50,[10],0.0816 µM
same,ED50,Cyclin-A2 (Homo sapiens),0.586 µM
same,ED50,[11],6.74 µM
same,ED50,[12],0.459 µM
same,ED50,[13],0.0233 µM
same,ED50,[14],0.639 µM
same,ED50,[15],0.175 µM
same,ED50,Ezrin (Homo sapiens),0.0827 µM
same,ED50,[16],0.68 µM
same,ED50,[17],0.0484 µM
same,ED50,[18],0.819 µM
same,ED50,[19],0.125 µM
same,ED50,[20],3.4 µM
same,ED50,[21],7.07 µM
same,ED50,[22],2.14 µM
same,ED50,[23],2.07 µM
same,ED50,[24],10.3 µM
same,ED50,[25],2.74 µM
same,ED50,[26],0.169 µM
same,ED50,[27],0.000132 µM
same,ED50,[28],17 µM
same,ED50,[29],4.56 µM
same,ED50,[30],0.0114 µM
same,ED50,[31],12.8 µM
same,ED50,[32],0.0641 µM
same,ED50,[33],10.6 µM
same,ED50,[34],0.00653 µM
same,ED50,[35],0.0679 µM
same,ED50,[36],10.8 µM
same,ED50,[37],0.366 µM
same,ED50,[38],0.835 µM
same,ED50,[39],97.9 µM
same,ED50,[40],9.78 µM
same,ED50,[41],0.0881 µM
same,ED50,[42],0.334 µM
same,ED50,[43],107 µM
